The target of this test is Endothelial lipase (EL) (Homo sapiens (Human), UniProt Q9Y5X9). Briefly: Endothelial lipase (EL) enzymatic assay with fluorescent substrate A10070 in DMPG vesicles. Type of test: biochemical. In short, it runs like this: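 Compounds were preincubated with enzyme for 30 min at 37° C before FRET-substrate vesicles (A10070 in DMPG, 0.11 mole fraction) were added. Reaction rates were obtained from the 300–900 sec slope of fluorescence at 490/530 nm.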

Among the data in patent publication US10173991B2, “Sulfone amide linked benzothiazole inhibitors of endothelial lipase” (BRISTOL-MYERS SQUIBB COMPANY, priority 2014, dated 2019) are IC50 values, retold here.

Read-outs that look alike come from different tables or passages of the source.

Endothelial lipase (EL), sequence (Q9Y5X9 21-500): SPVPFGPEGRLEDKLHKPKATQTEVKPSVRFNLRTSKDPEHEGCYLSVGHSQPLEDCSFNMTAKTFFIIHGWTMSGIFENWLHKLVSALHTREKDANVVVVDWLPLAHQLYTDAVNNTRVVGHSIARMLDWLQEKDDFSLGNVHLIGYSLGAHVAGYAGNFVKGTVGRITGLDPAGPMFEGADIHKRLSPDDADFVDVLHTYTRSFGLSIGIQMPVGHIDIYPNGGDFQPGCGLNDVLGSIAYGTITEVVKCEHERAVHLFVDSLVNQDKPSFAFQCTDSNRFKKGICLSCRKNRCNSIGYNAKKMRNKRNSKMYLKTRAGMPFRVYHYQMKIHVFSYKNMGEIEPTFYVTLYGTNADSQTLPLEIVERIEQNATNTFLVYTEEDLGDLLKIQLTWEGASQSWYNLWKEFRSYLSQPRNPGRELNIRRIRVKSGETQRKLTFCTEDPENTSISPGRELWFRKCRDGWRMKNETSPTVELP

For the molecule `COCCS(=O)(=O)C(C(=O)NCC(=O)NC1CC1)c1nc2ccc(-c3cccc(N(C)C(=O)OC)c3)cc2s1` (stereo not shown) [Example 545, methyl N-{3-[2-({[(cyclopropyl-carbamoyl)methyl]carbamoyl}(2-methoxyethane-sulfonyl)methyl)-1,3-benzothiazol-6-yl]phenyl}-N-methylcarbamate], the IC50 (usually the concentration that gives 50% inhibition) came to 13 nM. This counts as double-digit nanomolar.

In turn, `COC(=O)N(C)c1cccc(-c2ccc3nc(C(C(=O)NCC(=O)NC4CC4)S(=O)(=O)CCC(F)(F)F)sc3c2)c1` (stereo not shown) [Example 546, methyl N-{3-[2-({[(cyclopropyl-carbamoyl)methyl]carbamoyl}(3,3,3-trifluoropropane-sulfonyl)methyl)-1,3-benzothiazol-6-yl]phenyl}-N-methylcarbamate] gave an IC50 of 7 nM.

Regarding `COC(=O)N(C)c1cccc(-c2cc3sc(C(C(=O)NCC(=O)NC4CC4)S(C)(=O)=O)nc3cc2F)c1` (stereo not shown) [Example 547, methyl N-{3-[2-({[(cyclopropyl-carbamoyl)methyl]carbamoyl} (methanesulfonyl)methyl)-5-fluoro-1,3-benzothiazol-6-yl]phenyl}-N-methylcarbamate], inhibition was half-maximal at 8 nM (IC50).

With `COCCS(=O)(=O)C(C(=O)NCC(=O)NC1CC1)c1nc2cc(F)c(-c3cccc(N(C)C(=O)OC)c3)cc2s1` (stereo not shown) [Example 548, methyl N-{3-[2-({[(cyclopropyl-carbamoyl)methyl]carbamoyl}(2-methoxyethane-sulfonyl)methyl)-5-fluoro-1,3-benzothiazol-6-yl]phenyl}-N-methylcarbamate], the half-maximal inhibitory concentration (IC50) turned out to be 12 nM.

In turn, `COCCS(=O)(=O)C(C(=O)NCC(=O)NC1CC1)c1nc2cc(F)c(-c3cccc(NC(=O)OCc4ccccc4)c3)cc2s1` (stereo not shown) [Example 549, benzyl N-{3-[2-({[(cyclopropyl-carbamoyl)methyl]carbamoyl}(2-methoxyethane-sulfonyl)methyl)-5-fluoro-1,3-benzothiazol-6-yl]phenyl} carbamate] displayed an IC50 of 4 nM.

For the molecule `CS(=O)(=O)C(C(=O)NCC(=O)NC1CC1)c1nc2cc(F)c(-c3cccc(NC(=O)OCc4ccccc4)c3)cc2s1` (stereo not shown) [Example 550, benzyl N-{3-[2-({[(cyclopropyl-carbamoyl)methyl]carbamoyl} (methanesulfonyl)methyl)-5-fluoro-1,3-benzothiazol-6-yl]phenyl} carbamate], it took 1 nM to reach half-maximal inhibition (IC50). Compared with the last molecule, the IC50 is about 4-fold lower.

For `COCCS(=O)(=O)C(C(=O)NCC(=O)NC1CC1)c1nc2cc(F)c(-c3ccc(NC(=O)OCc4ccccc4)nc3)cc2s1` (stereo not shown) [Example 551, benzyl N-{5-[2-({[(cyclopropyl-carbamoyl)methyl]carbamoyl}(2-methoxyethane-sulfonyl)methyl)-5-fluoro-1,3-benzothiazol-6-yl]pyridin-2-yl} carbamate], the IC50 was 1 nM.

The molecule `CS(=O)(=O)C(C(=O)NCC(=O)NC1CC1)c1nc2cc(F)c(-c3ccc(NC(=O)OCc4ccccc4)nc3)cc2s1` (stereo not shown) [Example 552, benzyl N-{5-[2-({[(cyclopropyl-carbamoyl)methyl]carbamoyl} (methanesulfonyl)methyl)-5-fluoro-1,3-benzothiazol-6-yl]pyridin-2-yl}carbamate] showed an IC50 of 1 nM.

The molecule `O=C(CNC(=O)C(c1nc2cc(F)c(-c3cccc(NC(=O)OCc4ccccc4)c3)cc2s1)S(=O)(=O)CCC(F)(F)F)NC1CC1` (stereo not shown) [Example 553, benzyl N-{3-[2-({[(cyclopropyl-carbamoyl)methyl]carbamoyl}(3,3,3-trifluoropropane-sulfonyl)methyl)-5-fluoro-1,3-benzothiazol-6-yl]phenyl} carbamate] displayed an IC50 of 1 nM.

The molecule `O=C(CNC(=O)C(c1nc2cc(F)c(-c3ccc(NC(=O)OCc4ccccc4)nc3)cc2s1)S(=O)(=O)CCC(F)(F)F)NC1CC1` (stereo not shown) [Example 554, benzyl N-{5-[2-({[(cyclopropyl-carbamoyl)methyl]carbamoyl}(3,3,3-trifluoropropane-sulfonyl)methyl)-5-fluoro-1,3-benzothiazol-6-yl]pyridin-2-yl} carbamate] returned an IC50 of 3 nM.

For the molecule `O=C(CNC(=O)C(c1nc2cc(F)c(-c3cccc(NC(=O)OCc4ccccc4)c3)cc2s1)S(=O)(=O)C1CC1)NC1CC1` (stereo not shown) [Example 555, benzyl N-(3-{2-[(cyclopropane-sulfonyl) ({[(cyclopropyl-carbamoyl)methyl]carbamoyl})methyl]-5-fluoro-1,3-benzothiazol-6-yl}phenyl) carbamate], the IC50 is 1 nM.

Turning to `O=C(CNC(=O)C(c1nc2cc(F)c(-c3ccc(NC(=O)OCc4ccccc4)nc3)cc2s1)S(=O)(=O)C1CC1)NC1CC1` (stereo not shown) [Example 556, benzyl N-(5-{2-[(cyclopropane-sulfonyl) ({[(cyclopropyl-carbamoyl)methyl]carbamoyl)methyl]-5-fluoro-1,3-benzothiazol-6-yl}pyridin-2-yl) carbamate], the IC50 turned out to be 15 nM.

`CC(C)S(=O)(=O)C(C(=O)NCC(=O)NC1CC1)c1nc2cc(F)c(-c3cccc(NC(=O)OCc4ccccc4)c3)cc2s1` (stereo not shown) [Example 557, benzyl N-{3-[2-({[(cyclopropyl-carbamoyl)methyl]carbamoyl} (propane-2-sulfonyl)methyl)-5-fluoro-1,3-benzothiazol-6-yl]phenyl}carbamate] gave an IC50 of 7 nM.

Molecule `COCCS(=O)(=O)C(C(=O)NCC(=O)NC1CC1)c1nc2ccc(-c3ccc(C(=O)NCC(C)(C)COC)cc3)cc2s1` (stereo not shown) [Example 559, 4-(2-(2-((2-(Cyclopropylamino)-2-oxoethyl)amino)-1-((2-methoxyethyl)sulfonyl)-2-oxoethyl)benzo[d]thiazol-6-yl)-N-(3-methoxy-2,2-dimethylpropyl)benzamide] gave an IC50 (EL from conditioned media of HT-1080 cells, 30 min preincubation at 37° C.) of 5.5 nM.

The molecule `COCC(C)(C)NC(=O)c1ccc(-c2ccc3nc(C(C(=O)NCC(=O)NC4CC4)S(C)(=O)=O)sc3c2)cc1` (stereo not shown) [Example 560, 4-[2-({[(cyclopropyl-carbamoyl)methyl]carbamoyl} (methanesulfonyl)methyl)-1,3-benzothiazol-6-yl]-N-(1-methoxy-2-methylpropan-2-yl)benzamide] returned an IC50 of 2 nM.

`COCCS(=O)(=O)C(C(=O)NCC(=O)NC1CC1)c1nc2ccc(-c3ccc(C(=O)NC(C)(C)COC)cc3)cc2s1` (stereo not shown) [Example 561, 4-[2-({[(cyclopropyl-carbamoyl)methyl]carbamoyl}(2-methoxyethane-sulfonyl)methyl)-1,3-benzothiazol-6-yl]-N-(1-methoxy-2-methylpropan-2-yl)benzamide]: the IC50 turned out to be 3 nM.

Turning to `COCCS(=O)(=O)C(C(=O)NCC(=O)NC1CC1)c1nc2ccc(-c3ccc(C(=O)N4CCO[C@@H](C)C4)cc3)cc2s1` (stereo partly drawn) [Example 562, N-[(cyclopropyl-carbamoyl)methyl]-2-(2-methoxyethane-sulfonyl)-2-(6-{4-[(2S)-2-methyl-morpholine-4-carbonyl]phenyl}-1,3-benzothiazol-2-yl)acetamide], the IC50 was 11 nM.

On to `CC1(O)CN(C(=O)c2ccc(-c3cc4sc(C(C(=O)NCC(=O)NC5CC5)S(=O)(=O)CCC(F)(F)F)nc4cc3F)cc2)C1` (stereo not shown) [Example 564, N-[(cyclopropyl-carbamoyl)methyl]-2-{5-fluoro-6-[4-(3-hydroxy-3-methylazetidine-1-carbonyl)phenyl]-1,3-benzothiazol-2-yl}-2-[3,3,3-trifluoropropane-sulfonyl)acetamide], for which the IC50 was determined as 5 nM.

As for `COCCS(=O)(=O)C(C(=O)NCC(=O)NC1CC1)c1nc2cc(F)c(-c3ccc(C(=O)N4CC(C)(O)C4)cc3)cc2s1` (stereo not shown) [Example 565, N-[(cyclopropyl-carbamoyl)methyl]-2-{5-fluoro-6-[4-(3-hydroxy-3-methylazetidine-1-carbonyl)phenyl]-1,3-benzothiazol-2-yl}-2-(2-methoxyethane-sulfonyl)acetamide], it took 3 nM to reach half-maximal inhibition (IC50).

In turn, `COCCS(=O)(=O)C(C(=O)NCC(=O)NC1CC1)c1nc2ccc(-c3ccc(C(=O)NCC(C)(C)OC)cc3)cc2s1` (stereo not shown) [Example 566, 4-[2-({[(cyclopropyl-carbamoyl)methyl]carbamoyl}(2-methoxyethane-sulfonyl)methyl)-1,3-benzothiazol-6-yl]-N-(2-methoxy-2-methylpropyl) benzamide] registered an IC50 of 4 nM.

With `CC(C)(O)CNC(=O)c1ccc(-c2ccc3nc(C(C(=O)NCC(=O)NC4CC4)S(C)(=O)=O)sc3c2)cc1` (stereo not shown) [Example 567, 4-[2-({[(cyclopropyl-carbamoyl)methyl]carbamoyl} (methanesulfonyl)methyl)-1,3-benzothiazol-6-yl]-N-(2-hydroxy-2-methylpropyl) benzamide], it took 4 nM to reach half-maximal inhibition (IC50).

The molecule `COCCN(C)C(=O)c1ccc(-c2ccc3nc(C(C(=O)NCC(=O)NC4CC4)S(=O)(=O)CCOC)sc3c2)cc1F` (stereo not shown) [Example 568, 4-[2-({[(cyclopropyl-carbamoyl)methyl]carbamoyl}(2-methoxyethane-sulfonyl)methyl)-1,3-benzothiazol-6-yl]-2-fluoro-N-(2-methoxyethyl)-N-methylbenzamide] came in with a 50% inhibitory concentration (IC50) of 9 nM.

Molecule `COCCS(=O)(=O)C(C(=O)NCC(=O)NC1CC1)c1nc2ccc(-c3ccc(C(=O)N4C[C@@H](C)O[C@@H](C)C4)cc3)cc2s1` (stereo partly drawn) [Example 569, N-[(cyclopropyl-carbamoyl)methyl]-2-(6-{4-[(2R,6S)-2,6-dimethyl-morpholine-4-carbonyl]phenyl}-1,3-benzothiazol-2-yl)-2-(2-methoxyethane-sulfonyl)acetamide] yielded an IC50 of 20 nM.

Take `C[C@@H]1CN(C(=O)c2ccc(-c3ccc4nc(C(C(=O)NCC(=O)NC5CC5)S(C)(=O)=O)sc4c3)cc2)C[C@H](C)O1` (stereo partly drawn) [Example 570, N-[(cyclopropyl-carbamoyl)methyl]-2-(6-{4-[(2R,6S)-2,6-dimethyl-morpholine-4-carbonyl]phenyl}-1,3-benzothiazol-2-yl)-2-methanesulfonyl-acetamide]: the IC50 worked out at 4 nM.

Consider `COC(C)(C)CNC(=O)c1ccc(-c2ccc3nc(C(C(=O)NCC(=O)NC4CC4)S(C)(=O)=O)sc3c2)cc1` (stereo not shown) [Example 571, 4-[2-({[(cyclopropyl-carbamoyl)methyl]carbamoyl} (methanesulfonyl)methyl)-1,3-benzothiazol-6-yl]-N-(2-methoxy-2-methylpropyl) benzamide], for which 12 nM corresponded to half-maximal inhibition (IC50).
